Test results published in patent US10961507B2, “Method for producing hepatic stem/precursor cells from mature hepatic cells using low-molecular-weight compound” (Cynity Co., Ltd., priority 2016, dated 2021).

Tested on: CYP1A in Hep-i(+) cells
Assay: Determination of CYP1A activity and CYP1A1/CYP1A2 gene expression after 3-MC treatment
Format: cell-based, rat
Conditions: 5 μM for 4 days
Experimental: In order to induce CYP1A activity, cells on Day 8 of hepatocyte induction were treated with 5 μM 3-methylcholanthrene (3-MC) (Sigma) for 4 days (the medium was exchanged on the second day). The control cells were treated only with DMSO as a solvent. Four days later, P450-G1o CYP1A1 Assay (Luciferin-CEE) was used to determine CYP1A activity. According to the manufacturer's instruction, this kit can detect CYP1A2 activity more efficiently than CYP1A1 activity. Following CYP1A activity, the DNA content of the cells was measured to normalize the CYP activity. In order to examine the responsiveness to 3-MC, fold changes in activity were calculated as [mean luminescence in the presence of 3-MC/mean luminescence in the absence of 3-MC] for 3 wells/condition in each experiment to determine an average value for five independent experiments. In two experiments, total RNA was isolated to assess the gene expression levels of CYP1A1 and CTP1A2.

Cc1ccc2cc3c(ccc4ccccc43)c3c2c1CC3 [3-MC, 3-methylcholanthrene]
CYP1A1 and CYP1A2 gene expressions in response to stimulation: efficiently induced
CYP1A activity in response to stimulation: efficiently induced
